Laboratory results published in ChEMBL document CHEMBL5500360, “Discovery of N-(4-((6-(3,5- Dimethoxyphenyl)-9H-purine derivatives as irreversible covalent FGFR inhibitors” (Eur J Med Chem, 2024).

What was measured:
MDA-MB-435 = assay: cells; conditions: Homo sapiens, MDA-MB-435, 72 h
Description: Antiproliferative activity against human MDA-MB-435 cells assessed as inhibition of cell growth incubated for 72 hrs by MTT assay

MDA-MB-231 = assay: cells; conditions: Homo sapiens, MDA-MB-231, 72 h
KYSE-150 cell line = assay: cells; conditions: Homo sapiens, KYSE-150, 72 h
Description: Antiproliferative activity against human KYSE-150 cells assessed as inhibition of cell growth incubated for 72 hrs by MTT assay

HepG2 = assay: cells; conditions: Homo sapiens, HepG2, 72 h
in vitro = conditions: human
Description: Cytotoxicity against HUVEC cells assessed as inhibition of cell growth incubated for 72 hrs by MTT assay

Compound	IC50 (MDA-MB-435) [µM]	IC50 (MDA-MB-231) [µM]	IC50 (KYSE-150 cell line) [µM]	IC50 (HepG2) [µM]	IC50 at 72 h (in vitro; HUVEC cells) [µM]	IC50 at 72 h (in vitro; huvec) [µM]
O=C(CCl)Nc1ccc(Cn2cnc3c(Cl)ncnc32)cc1	26.4	21.2	12.3	27.3	64	
C=CC(=O)Nc1cc(Cn2cnc3ccc(Cl)nc32)ccc1F	24.3	25.8	13.8	24.7	64.5	
C=CC(=O)Nc1ccc(Cn2cnc3c(Cl)ncnc32)cc1	5.93	2.64	2.95	2.81	50.5	
CC(C)C(=O)Nc1ccc(Cn2cnc3c(Cl)ncnc32)cc1	29.4	7.17	18.9	27.6	79.6	
O=C(Nc1ccc(Cn2cnc3c(Cl)ncnc32)cc1)C1CC1	31.6	9.64	10.6	27	81.2	
C=CC(=O)Nc1ccc(C(=O)n2ncc3ccc(Br)cc32)cc1	3.3	40	6.86	51.1	81	
CC(Cl)C(=O)Nc1ccc(Cn2cnc3c(Cl)ncnc32)cc1 (stereo not drawn)	32.2	9.87	9.46	17.8	81.8	
CC(C)=CC(=O)Nc1ccc(Cn2cnc3c(Cl)ncnc32)cc1	30.1	7.36	13.3	19.1	77.1	
C=CC(=O)Nc1cc(Cn2ccc3ccc(Br)cc32)ccc1F	24.6	7.21	7.26	11.1	76.5	
C=CC(=O)Nc1cc(Cn2nnc3c(C(=O)NCC4CC(F)(F)C4)cccc32)ccc1F	27	10	6.86	29.6	46.2	
C=CC(=O)Nc1cc(Cn2ccc3cc(Br)cnc32)ccc1F	27.4	37.4	8.23	28.1	75.5	
C=CC(=O)Nc1ccc(C(=O)n2ccc3cc(Cl)cnc32)cc1	18.5	34.8	10.8	45	80.4	
C=CC(=O)Nc1ccc(Cn2cnc3c(-c4cccs4)ncnc32)cc1	15.7	6.18	12.2	11.1	77.2	
C=CC(=O)Nc1cc(Cn2ccc3c(Cl)ccnc32)ccc1F	27.2	27.2	23	23.7	54.4	
C=CC(=O)Nc1cc(Cn2ncc3ccc(Br)cc32)ccc1F	6.3	29.7	9.84	16.4	69.7	
C=CC(=O)Nc1cc(Cn2cnc3c(Cl)ncnc32)ccc1F	5.67	10.1	3.78	15.7	71.4	

Compound	IC50 (MDA-MB-435) [µM]	IC50 (MDA-MB-231) [µM]	IC50 (KYSE-150 cell line) [µM]	IC50 (HepG2) [µM]	IC50 at 72 h (in vitro; HUVEC cells) [µM]	IC50 at 72 h (in vitro; huvec) [µM]
CCC(=O)Nc1ccc(Cn2cnc3c(Cl)ncnc32)cc1	30.1	7.93	13.3	28.5	80.1	
C=CC(=O)Nc1ccc(Cn2cnc3c(-c4ccccc4)ncnc32)cc1	12.8	7.22	11.2	9.34	81.3	
C=CC(=O)Nc1ccc(Cn2cnc3c(-c4ccc(F)c(F)c4)ncnc32)cc1	13.2	5.64	14.3	8.36	75.2	
C=CC(=O)Nc1ccc(C(=O)n2ccc3cc(Br)cnc32)cc1	18.9	24.4	16.8	39.4	75.4	
C=CC(=O)Nc1ccc(C(=O)n2ncc3cccnc32)cc1	33.8	26.7	9.83	42.6	82.2	
C=C(C)C(=O)Nc1ccc(Cn2cnc3c(Cl)ncnc32)cc1	29.4	66.3	26	48.4	80.9	
C=CC(=O)Nc1cc(Cn2cnc3cnc(Cl)nc32)ccc1F	20.8	23.8	23.8	24.2	57.1	
C=CC(=O)Nc1cc(Cn2ccc3ncnc(Cl)c32)ccc1F	26.2	40.3	15.9	25.1	79.3	
C=CC(=O)Nc1ccc(Cn2cnc3c(-c4cc5ccccc5s4)ncnc32)cc1	11.1	13.9	8.26	9.26	79.1	
C=CC(=O)Nc1ccc(C(=O)n2ccc3c(Cl)ncnc32)cc1	10	29.4	10.1	40.1	56.1	
C=CC(=O)Nc1cc(Cn2ccc3c(Cl)ncnc32)ccc1F	27.1	29.3	7.68	26.8	60.3	
C=CC(=O)Nc1ccc(Cn2cnc3c(-c4cc5ccccc5o4)ncnc32)cc1	20.1	6.53	13.5	12.2	79.2	
C=CC(=O)N1CC[C@@H](n2nc(C#Cc3cc(OC)cc(OC)c3)c3c(N)ncnc32)C1	16.3		17.6			63.6
C=CC(=O)Nc1cc(Cn2nnc3c(C(=O)OC)cccc32)ccc1F	32.5	20.3	13.6	30.5	64.2	
C=CC(=O)Nc1cc(Cn2ncc3ccncc32)ccc1F	24.1	9.15	5.21	29.1	54.6	
C=CC(=O)Nc1cc(Cn2nnc3c(C(=O)NCC(F)F)cccc32)ccc1F	27.9	29.2	16.2	19.9	50.9	
